pIC50: −log10 of the molar value.
Legend:
P. aeruginosa LpxC = biological target: T1, P. aeruginosa LpxC (Pseudomonas aeruginosa, UniProt P47205); assay: P. aeruginosa LpxC Inhibition Assay (LC-MS/MS); format: biochemical; details: 1 nM P. aeruginosa LpxC, 30 min pre-incubation, 2 μM UDP-3-O-(R-3-hydroxydecanoyl)-GlcNAc, pH 7.5
T1 construct: made in house
T1 sequence (P47205 1-303): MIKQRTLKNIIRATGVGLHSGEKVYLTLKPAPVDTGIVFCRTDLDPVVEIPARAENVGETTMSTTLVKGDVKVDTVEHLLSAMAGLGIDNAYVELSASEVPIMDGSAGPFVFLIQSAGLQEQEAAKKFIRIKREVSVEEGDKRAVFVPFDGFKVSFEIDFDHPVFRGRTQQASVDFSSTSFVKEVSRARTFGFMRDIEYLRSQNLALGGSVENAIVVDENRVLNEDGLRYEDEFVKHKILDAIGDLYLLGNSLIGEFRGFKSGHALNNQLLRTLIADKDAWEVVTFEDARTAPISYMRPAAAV
Source text: P. aeruginosa LpxC Inhibition Assay
The P. aeruginosa LpxC protein is produced according to the general method of Hyland et al (Journal of Bacteriology 1997 179, 2029-2037: Cloning, expression and purification of UDP-3-O-acyl-GlcNAc deacetylase from Pseudomonas aeruginosa: a metalloamidase of the lipid A biosynthesis pathway). The LC-MS/MS method for quantitation of LpxC product was developed using an Agilent 1200 Capillary HPLC system coupled to an Applied Biosystems MDS Sciex 4000QTRAP mass spectrometer. Both instruments are controlled using the Applied Biosystems MDS Sciex Analyst software. LpxC reaction product (UDP-3-O—(R-3-hydroxyacyl)-glucosamine) was produced by hydrolysis of LpxC substrate catalyzed by P.a. LpxC and purified using reversed phase chromatography on a Phenomenex Luna C18(2) 4.6×50 mm column. An LpxC product calibration curve was generated to evaluate the sensitivity and dynamic range of the LC-MS/MS method. Briefly, compounds are pre-incubated with 1 nM P. aeruginosa LpxC for 30 min. at room temperature. Reactions are initiated by the addition of 2 μM UDP-3-O—(R-3-hydroxydecanoyl)-GlcNAc. Reactions are conducted in a 384-well plate with a total volume of 50 μL in each well containing 50 mM Sodium phosphate pH 7.5, 0.005% Trition X-100 for 20 min at room temperature. After quenching with 1.8% HOAc (5 μL of a 20% HOAc added to each well), reaction mixtures are analyzed using the LC-MS/MS method and peak areas are transformed into product concentration using a LpxC product calibration curve. Total activity (0% inhibition control) is obtained from reactions with no inhibitors and 100% inhibition control is the background using quenched samples before reaction starts. For IC50 determinations, peak areas are converted to percent inhibition in Microsoft Excel. Percent inhibition values are plotted vs. log compound concentration using XLfit. Data is fit to the four-parameter logistic equation using the non-linear regression algorithm in XLfit to return the IC50 and hill slope values.

P. A. PAO1 NB52019 = assay: MIC, broth microdilution (CLSI); format: cell-based, Pseudomonas aeruginosa; details: Pseudomonas aeruginosa, PAO1; broth microdilution, 35° C., 20 hours; read-out: P. A. PAO1 NB52019 MIC
Procedure: (§1) Bacterial isolates were cultivated from −70° C. frozen stocks by two consecutive overnight passages at 35° C. in ambient air on 5% blood agar (Remel, Lenexa, Kans.). Quality control strain, P. aeruginosa ATCC 27853, A. baumannii ATCC19606 and E. coli ATCC 25922 are from the American Type Culture Collection (ATCC; Rockville, Md.) and PAO1 was received from Dr. K. Poole.
(§2) Minimal Inhibitory Concentrations (MICs) were determined by the broth microdilution method in accordance with Clinical and Laboratories Institute (CLSI) guidelines (CLSI M100-S25, Performance Standards for Antimicrobial Susceptibility Testing; Twenty-fifth Informational Supplement). In brief, fresh bacterial overnight cultures were resuspended in sterile saline, adjusted to a 0.5 McFarland turbidity standard and then diluted 2000-fold in cation adjusted Mueller-Hinton Broth II (MHB; Remel BBL) to yield a final inoculum of approximately 5×10^5 colony-forming units (CFU)/mL. Two-fold serial dilutions of compounds were prepared in 100% dimethyl sulfoxide (DMSO) at 100-fold the highest final assay concentration; the resulting dilution series of compounds were diluted 1:10 with sterile water. Ten μl of the drug dilution series in 10% DMSO was transferred to microtiter wells and 90 μl of bacterial suspension was inoculated into the wells. For testing the ability of compounds to potentiate the activity of known antibiotics, the assay was modified as follows; known antibiotics were added to the bacterial inoculum at 1.1-fold the final assay concentration indicated in Table A. All inoculated microdilution trays were incubated in ambient air at 35° C. for 20 hours. Following incubation, assay plates were read in a microtiter plate reader at 600 nm and visually inspected to confirm the MIC endpoint well with the OD value. The lowest concentration of the compound that prevented visible growth was recorded as the MIC. Performance of the assay was monitored by testing ciprofloxacin against the laboratory quality control strain in accordance with guidelines of the CLSI.

E. C. ATCC 25922 = assay: MIC, broth microdilution (CLSI); format: cell-based, Escherichia coli; details: Escherichia coli, ATCC25922, 20 h, broth microdilution, 35° C., 20 hours; read-out: E. C. ATCC 25922 MIC
Procedure: as §1, §2

E. C. ATCC 29522 = assay: MIC in the presence of sub-inhibitory rifampicin (potentiation/synergy); format: cell-based, Escherichia coli; details: +2 μg/ml rifampicin (RIF); broth microdilution, 35° C., 20 hours
Procedure: as §1, §2

A. B. ATCC 19606 [1] = assay: MIC, broth microdilution (CLSI); format: cell-based, Acinetobacter baumannii; details: Acinetobacter baumannii, ATCC19606; broth microdilution, 35° C., 20 hours; read-out: A. B. ATCC 19606 MIC
Procedure: as §1, §2

A. B. ATCC 19606 [2] = assay: MIC in the presence of sub-inhibitory rifampicin (potentiation/synergy); format: cell-based, Acinetobacter baumannii; details: +2 μg/ml rifampicin (RIF); broth microdilution, 35° C., 20 hours
Procedure: as §1, §2

pIC50 (P. aeruginosa LpxC) | MIC (P. A. PAO1 NB52019) | MIC (E. C. ATCC 25922) | E. C. ATCC 29522 (+2 μg/ml RIF) MIC (E. C. ATCC 29522) | MIC (A. B. ATCC 19606 [1]) | A. B. ATCC 19606 (+2 μg/ml RIF) MIC (A. B. ATCC 19606 [2]) | Compound
> 9.00 | 0.5 µg/mL | 2 µg/mL | ≤0.06 µg/mL | > 64 µg/mL | 2 µg/mL | CC(CCc1cc(C#Cc2ccc(CO)cc2)on1)(C(=O)NO)S(C)(=O)=O (stereo not drawn) [Compound 2.1, N-hydroxy-4-(5-((4-(hydroxymethyl)phenyl)ethynyl)isoxazol-3-yl)-2-methyl-2-(methylsulfonyl)butanamide]
> 9.00 | 0.25 µg/mL | 0.25 µg/mL | ≤0.06 µg/mL | > 64 µg/mL | 0.5 µg/mL | CC(CCc1cc(C#Cc2ccc(CCO)cc2)on1)(C(=O)NO)S(C)(=O)=O (stereo not drawn) [Compound 2.2, N-hydroxy-4-(5-((4-(2-hydroxyethyl)phenyl)ethynyl)isoxazol-3-yl)-2-methyl-2-(methylsulfonyl)butanamide]
> 9.00 | 0.5 µg/mL | 1 µg/mL | 0.125 µg/mL | > 64 µg/mL | 4 µg/mL | COC(CO)c1ccc(C#Cc2cc(CCC(C)(C(=O)NO)S(C)(=O)=O)no2)cc1 (stereo not drawn) [Compound 2.3, N-hydroxy-4-(5-((4-(2-hydroxy-1-methoxyethyl)phenyl)ethynyl)isoxazol-3-yl)-2-methyl-2-(methylsulfonyl)butanamide]
> 9.00 | 0.5 µg/mL | 0.5 µg/mL | ≤0.06 µg/mL | 64 µg/mL | ≤0.06 µg/mL | CC(CCc1cc(C#Cc2ccccc2)on1)(C(=O)NO)S(C)(=O)=O (stereo not drawn) [Compound 2.4, N-hydroxy-2-methyl-2-(methylsulfonyl)-4-(5-(phenylethynyl)isoxazol-3-yl)butanamide]

More lines, now with the values behind:

Compound | pIC50 (P. aeruginosa LpxC) | MIC (P. A. PAO1 NB52019) | MIC (E. C. ATCC 25922) | E. C. ATCC 29522 (+2 μg/ml RIF) MIC (E. C. ATCC 29522) | MIC (A. B. ATCC 19606 [1]) | A. B. ATCC 19606 (+2 μg/ml RIF) MIC (A. B. ATCC 19606 [2])
C[C@@](CCc1cc(C#CCCCF)on1)(C(=O)NO)S(C)(=O)=O [Compound 1.10, (R)-4-(5-(5-fluoropent-1-yn-1-yl)isoxazol-3-yl)-N-hydroxy-2-methyl-2-(methylsulfonyl)butanamide] | > 9.00 | 0.5 µg/mL | 8 µg/mL | 0.25 µg/mL | > 64 µg/mL | 0.25 µg/mL
C[C@@](CCc1cc(C#CCCC(F)F)on1)(C(=O)NO)S(C)(=O)=O [Compound 1.11, (R)-4-(5-(5,5-Difluoropent-1-yn-1-yl)isoxazol-3-yl)-N-hydroxy-2-methyl-2-(methylsulfonyl)butanamide] | 9.00 | 1 µg/mL | 32 µg/mL | 0.5 µg/mL | > 64 µg/mL | 1 µg/mL
C[C@@](CCc1cc(C#CC2CC(F)(F)C2)on1)(C(=O)NO)S(C)(=O)=O [Compound 1.12, (R)-4-(5-((3,3-difluorocyclobutyl)ethynyl)isoxazol-3-yl)-N-hydroxy-2-methyl-2-(methylsulfonyl)butanamide] | > 9.00 | 0.5 µg/mL | 16 µg/mL | 0.25 µg/mL | > 64 µg/mL | ≤0.06 µg/mL
CC(C)(O)CCC#Cc1cc(CC[C@](C)(C(=O)NO)S(C)(=O)=O)no1 [Compound 1.14, (R)—N-hydroxy-4-(5-(5-hydroxy-5-methylhex-1-yn-1-yl)isoxazol-3-yl)-2-methyl-2-(methylsulfonyl)butanamide] | 8.70 | 8 µg/mL | > 64 µg/mL | 16 µg/mL | > 64 µg/mL | ≤0.06 µg/mL
CC(C)(O)C1CC(C#Cc2cc(CC[C@](C)(C(=O)NO)S(C)(=O)=O)no2)C1 (stereo partly drawn) [Compound 1.16, (R)—N-hydroxy-4-(5-((3-(2-hydroxypropan-2-yl)cyclobutyl)ethynyl)isoxazol-3-yl)-2-methyl-2-(methylsulfonyl)butanamide] | > 9.00 | 2 µg/mL | 16 µg/mL | 4 µg/mL | > 64 µg/mL | 4 µg/mL
